# Laboratory results: patent publication US6716828B1, “Compounds, methods and pharmaceutical compositions for treating cellular damage, such as neural or cardiovascular tissue damage” (Guilford Pharmaceuticals, Inc., priority 1999, dated 2004)
# Legend:
# male Long-Evans rats = assay: Focal cerebral ischemia (right distal MCA cauterization with bilateral temporary CCA occlusion); format: in vivo; conditions: for damaged volume (infarct volume): mean±SD
# Procedure: Focal cerebral ischemia is produced by cauterization of the right distal MCA (middle cerebral artery) with bilateral temporary common carotid artery occlusion in male Long-Evans rats for 90 minutes. All procedures performed on the animals are approved by the University Institutional Animal Care and Use Committee of the University of Pennsylvania. A total of 42 rats (weights: 230-340 g) obtained from Charles River were used in this study. The animals fasted overnight with free access to water prior to the surgical procedure.
# Two hours prior to MCA occlusion, varying amounts (control, n=14; 5 mg/kg, n=7; 10 mg/kg, n=7; 20 mg/kg, n=7; and 40 mg/kg, n=7) of the compound, 3,4-dihydro-5-[4-(1-piperidinyl)-butoxy]-1(2H)-isoquinolinone (“DPQ”) were dissolved in dimethyl sulfoxide (DMSO) using a sonicator. A volume of 1.28 ml/kg of the resulting solution was injected intraperiotoneally into fourteen rats.
# The rats were then anesthetized with halothane (4% for induction and 0.8%-[…] for the surgical procedure) in a mixture of 70% nitrous oxide and 30% oxygen. The body temperature was monitored by a rectal probe and maintained at 37.5±0.5° C. with a heating blanket regulated by a homethermic blanket control unit (Harvard Apparatus Limited, Kent, U.K.). A catheter (PE-50) was placed into the tail artery, and arterial pressure was continuously monitored and recorded on a Grass polygraph recorder (Model 7D, Grass Instruments, Quincy, Mass.). Samples for blood gas analysis (arterial pH, PaO2 and PaCO2) were also taken from the tail artery catheter and measured with a blood gas analyzer (ABL 30, Radiometer, Copenhagen, Denmark). Arterial blood samples were obtained 30 minutes after MCA occlusion.
# The head of the animal was positioned in a stereotaxic frame, and a right parietal incision between the right lateral canthus and the external auditory meatus was made. Using a dental drill constantly cooled with saline, a 3 mm burr hole was prepared over the cortex supplied by the right MCA. 4 mm lateral to the sagittal suture and 5 mm caudal to the coronal suture. The dura mater and a thin inner bone layer were kept, care being taken to position the probe over a tissue area devoid of large blood vessels. The flow probe (tip diameter of 1 mm, fiber separation of 0.25 mm) was lowered to the bottom of the cranial burr hole using a micromanipulator. The probe was held stationary by a probe holder secured to the skull with dental cement. The microvascular blood flow in the right parietal cortex was continuously monitored with a laser Doppler flowmeter (FloLab, Moor, Devon, U.K., and Periflux 4001, Perimed, Stockholm, Sweden).
# Focal cerebral ischemia was produced by cauterization of the distal portion of the right MCA with bilateral temporary common caroud artery (CCA) occlusion by the procedure of Chen et al., “A Model of Focal Ischemic Stroke in the Rat: Reproducible Extensive Cortical Infarction”, Stroke 17:738-43 (1986) and/or Liu et al., “Polyethylene Glycol-conjugated Superoxide Dismutase and Catalase Reduce Ischemic Brain Injury”, Am. J. Physiol. 256:H589-93 (1989), both of which are hereby incorporated by reference.
# Specifically, bilateral CCA's were isolated, and loops made from polyethylene (PE-10) catheter were carefully passed around the CCA's for later remote occlusion. […]
# PARP = PARP (Homo sapiens, UniProt P09874); conditions: read-out: IC50 for inhibiting PARP; reported by Suto et al.; cited from earlier work
# PARP, sequence (P09874 whole entry): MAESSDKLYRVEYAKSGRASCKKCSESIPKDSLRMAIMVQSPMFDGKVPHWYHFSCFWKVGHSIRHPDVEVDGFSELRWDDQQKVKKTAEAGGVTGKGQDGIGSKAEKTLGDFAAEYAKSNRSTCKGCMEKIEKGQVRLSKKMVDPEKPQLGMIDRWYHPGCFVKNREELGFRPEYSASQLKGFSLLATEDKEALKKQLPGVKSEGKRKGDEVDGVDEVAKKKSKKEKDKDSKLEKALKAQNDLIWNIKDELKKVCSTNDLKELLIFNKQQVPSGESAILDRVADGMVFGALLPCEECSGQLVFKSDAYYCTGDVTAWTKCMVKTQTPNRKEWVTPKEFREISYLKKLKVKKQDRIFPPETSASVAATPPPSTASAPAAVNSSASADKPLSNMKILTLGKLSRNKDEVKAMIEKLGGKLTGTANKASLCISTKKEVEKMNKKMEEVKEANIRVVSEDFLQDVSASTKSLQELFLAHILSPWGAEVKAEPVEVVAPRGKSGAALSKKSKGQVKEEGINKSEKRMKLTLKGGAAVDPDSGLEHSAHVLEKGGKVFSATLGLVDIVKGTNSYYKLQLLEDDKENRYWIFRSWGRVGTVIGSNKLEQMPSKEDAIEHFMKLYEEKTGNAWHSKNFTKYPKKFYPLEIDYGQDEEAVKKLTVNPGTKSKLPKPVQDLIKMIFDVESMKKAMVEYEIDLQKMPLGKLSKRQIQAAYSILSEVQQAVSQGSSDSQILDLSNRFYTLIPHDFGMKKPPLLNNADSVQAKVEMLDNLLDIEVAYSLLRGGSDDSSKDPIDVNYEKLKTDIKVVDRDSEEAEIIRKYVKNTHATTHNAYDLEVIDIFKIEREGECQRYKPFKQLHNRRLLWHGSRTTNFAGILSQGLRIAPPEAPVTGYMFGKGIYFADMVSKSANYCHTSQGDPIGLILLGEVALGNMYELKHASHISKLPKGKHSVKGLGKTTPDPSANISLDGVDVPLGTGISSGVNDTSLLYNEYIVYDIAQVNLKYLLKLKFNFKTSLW
smiles,measurement,setting,value
"O=C1NCCc2c(OCCCCN3CCCCC3)cccc21 [DPQ, 3,4-dihydro-5-[4-(1-piperidinyl)-butoxy]-1(2H)-isoquinolinone]",damaged volume (infarct volume),"male Long-Evans rats; 5 mg/kg i.p. 2 h before and 2 h after MCA occlusion, p<0.001 vs control",106.7±23.2 mm^3
same,damaged volume (infarct volume),"male Long-Evans rats; 10 mg/kg i.p. 2 h before and 2 h after MCA occlusion, p<0.001 vs control",76.4±16.8 mm^3
same,damaged volume (infarct volume),"male Long-Evans rats; 20 mg/kg i.p. 2 h before and 2 h after MCA occlusion, p<0.01 vs control",110.2±42.0 mm^3
same,damaged volume (infarct volume),"male Long-Evans rats; 40 mg/kg i.p. 2 h before and 2 h after MCA occlusion, not significant vs control",135.6±44.8 mm^3
same,"infarct volume, overall effect of in vivo administration",male Long-Evans rats; focal cerebral ischemia model in the rat,substantial reduction in infarct volume
same,IC50,PARP,10 nM
